Measured values taken from US20090060984A1, “ANIONIC SURFACTANTS LETHAL TO GRAM-POSITIVE BACTERIA” (priority 2007, published 2009).
Like-named read-outs stand apart in the source and are kept apart here.

Legend:
P. aeruginosa ATCC 15442 = settings: for CFU/mL of E. coli at 24 hours / CFU/mL of E. coli at 12 hours: exposed to P. aeruginosa, polyurethane, microscope slides
Procedure: (§1) Escherichia coli ATCC 11229 (Culti-loops, Remel Europe, Dartford, Kent, UK) and Pseudomonas aeruginosa ATCC 15442 (Cuti-loops, Remel Europe, Dartford, Kent, UK) were selected as model Gram-negative organisms for the challenge testing of the antimicrobial coatings. Each bacterial strain was streaked for isolated colonies on Tryptic Soy Agar (TSA) plates (Difco, Becton Dickinson, Sparks, Md., U.S.A.) and incubated at 37° C. for 12 to 18 hours. Broth cultures were prepared by first picking 1-2 isolated colonies from TSA plates and inoculating 5 mL Tryptic Soy Broth (TSB; Difco, Becton Dickinson, Sparks, Md., U.S.A.) in a 16 mm test tube. This culture was grown in a shaking water bath at 150 RPM for 8 hours at 37° C. After the eight hours, 125 μL of this culture was added to 50 mL of TSB in a side-arm Klett flask and grown for approximately 8 hours in shaking water bath (150 RPM) at 37° C. The bacterial broths were grown to an A590 of 1.2-1.5, which correlated to approximately 10^9 CFU (colony forming units)/mL. 25 mL of this broth were transferred to a sterile 30 mL Oakridge tube and centrifuged at 12,000×g for 10 minutes at 4° C. (Sorval SS34 rotor) to pelletize the bacteria. The bacterial pellet was washed once and resuspended in 25 mL of phosphate buffer solution (PBS; BBL, FTA Hemaglutination Buffer, Becton Dickinson, Sparks, Md., U.S.A.). The suspension was diluted with PBS to achieve the target range of 10^5-10^6 CFU/mL and used to inoculate the slides containing antibacterial coatings.
The 10% substitution on this weight basis corresponds to substitution of one tenth of the total surfactant weight or to 3% of the total composition weight.
The second set of coatings was made on microscope slides and challenged with E. coli ATCC 11229 and P. aeruginosa ATCC 15442. In these coatings, the gradient levels of incorporated silver were: 0%, 0.02%, 0.05%, 0.1%, 0.2%, 0.5%, 1.0% and 2.0% of the 30% NaAOT control amount. […] These gradients were tested at three inoculation time points, 0 hours, 12 hours, and 24 hours, with the 0% silver and 0 hours slides as controls.
The bacterial cultures were prepared as described in Example 12. Once the slides were inoculated, those assigned to incubate for 12 hours or 24 hours were placed in a humidified chamber by placing the Petri dishes containing the slides on test tubes that had been taped to the bottom of a 9″×13″ Pyrex dish. These test tubes held the Petri dishes just above the bottom of the dish, into which about 500 mL of sterile water was added. The Pyrex dish was also sterilized via UV irradiation (at least 4 minutes of exposure) prior to each challenge to protect against contamination. The dish was then covered with plastic wrap and tin foil and incubated at room temperature (20° C. to 25° C.).
At each time point (0 hours, 12 hours, and 24 hours), 25 mL of sterile PBS was pipetted into the Petri dish completely submerging the glass slide coated with the antimicrobial polymer.

S. aureus = format: cell-based, Staphylococcus aureus; settings: laboratory acrylic clearcoat, 24 h contact time
Description: A laboratory experimental solvent based acrylic paint is formulated and then used to challenge S. aureus by adding various levels of the invention silver anionic surfactants as described in Example 33. A binder is made by solution polymerization of butyl acrylate (25% w/w), methylmethacrylate (73.5% w/w), and methacrylic acid (1.5% w/w) in amylacetate using thermal initiation. This solution polymer is then used to make a 60% solids clearcoat binder in xylene/methanol (5:1 by weight). The silver anionic surfactants are dissolved in this same xylene/methanol mixture prior to addition to the clearcoat.

E. coli = format: cell-based, Escherichia coli; settings: 24 h contact time
Procedure: as §1
Xylene/methanol (5:1 by weight) is used to dissolve the silver surfactants to facilitate homogeneously mixing with the alkyd resin composition.
A minus sign (−) denotes no growth, a plus sign (+) denotes confluent growth, and a capital P (P) denotes […].
Xylene/methanol (5:1 by weight) is used to dissolve the silver surfactants to facilitate homogeneously mixing with the acrylic resin composition.
The same laboratory experimental solvent based acrylic paint described in Example 34 is used to challenge E. coli by adding various levels of the invention silver anionic surfactants as described in Example 34.
A commercially available 2K epoxy resin paint is obtained from a local paint store (Sherwin Williams High Solids Epoxy Tile Clad HS; Part A B62WC11; Part B B60VZ75, The Sherwin Williams Company) and the same silver anionic surfactants described in Example 35 are used to prepare test coatings on microscope slides containing various levels of silver ion. These surfactants are dissolved in xylene/methanol (5:1 by weight) to facilitate their quantitative addition to the coating mixture.

[1] = 0.061% weight w/w Ag in coating (first column 0.113)
[2] = 0.122% weight w/w Ag in coating (first column 0.226)
[3] = […] weight w/w Ag in coating (first column 0.0574)

With CCCCC(CC)COC(=O)CC(C(=O)OCC(CC)CCCC)S(=O)(=O)[O-].[Ag+] (stereo not drawn) [AgAOT] the “Overall silver level effective as bactericide” value (P. aeruginosa ATCC 15442; 12 hours of exposure) was 0.06 % weight silver relative to coating weight, the “Smallest level examined that appears effective at killing the P. aeruginosa” value (P. aeruginosa ATCC 15442; 24 h exposure) was 0.0012 % weight Ag relative to overall coating weight and the “Overall silver level effective as bactericide” value (P. aeruginosa ATCC 15442; 24 hours of exposure) was 0.006 % weight silver relative to coating weight. The “CFU/mL of E. coli at 24 hours” value (P. aeruginosa ATCC 15442; 0.0061% weight w/w Ag in coating (first column 0.0113)) was 0, 0, 0 CFU/mL, the “CFU/mL of E. coli at 12 hours” value (P. aeruginosa ATCC 15442; [1]) was 0, 0, 0 CFU/mL and the “CFU/mL of E. coli at 24 hours” value (P. aeruginosa ATCC 15442; [1]) was 0, 0, 0 CFU/mL. For the same compound, the “CFU/mL of E. coli at 12 hours” value (P. aeruginosa ATCC 15442; [2]) was 0, 0, 0 CFU/mL, the “CFU/mL of E. coli at 24 hours” value (P. aeruginosa ATCC 15442; [2]) was 0, 0, 0 CFU/mL and the “CFU/mL of E. coli at 24 hours” value (P. aeruginosa ATCC 15442; […] weight w/w Ag in coating (first column 0.00230)) was 0, 0, 0 CFU/mL. For the same compound, the “CFU/mL of E. coli at 12 hours” value (P. aeruginosa ATCC 15442; [3]) was 0, 0, 0 CFU/mL, the “CFU/mL of E. coli at 24 hours” value (P. aeruginosa ATCC 15442; [3]) was 0, 0, 0 CFU/mL and the “Silver level with partial growth” value (S. aureus) was “this lowest level”. The “E. coli growth on coating” value (E. coli; alkyd resin paint, 0.0012 weight % Ag in coating) was “+”, the “E. coli growth on coating” value (E. coli; alkyd resin paint, 0.003 weight % Ag in coating) was “+” and the “E. coli growth on coating” value (E. coli; alkyd resin paint, 0.012 weight % Ag in coating) was “−”. The “E. coli growth on coating” value (E. coli; alkyd resin paint, 0.03 weight % Ag in coating) was “−”, the “E. coli growth on coating” value (E. coli; alkyd resin paint, 0.06 weight % Ag in coating) was “−” and the “E. coli growth on coating” value (E. coli; alkyd resin paint, 0.12 weight % Ag in coating) was “−”. For the same compound, the “Silver level effective at preventing any growth” value (E. coli; alkyd resin paint) was 0.012 % w/w, the “Silver level partially effective” value (E. coli; alkyd resin paint) was 0.006 % w/w and the “E. coli growth on coating” value (E. coli; commercial 2K epoxy paint, 0.0012 weight % Ag in coating) was “+”. The “E. coli growth on coating” value (E. coli; commercial 2K epoxy paint, 0.003 weight % Ag in coating) was “+”, the “E. coli growth on coating” value (E. coli; commercial 2K epoxy paint, 0.006 weight % Ag in coating) was “+” and the “E. coli growth on coating” value (E. coli; commercial 2K epoxy paint, 0.012 weight % Ag in coating) was “+”. The “E. coli growth on coating” value (E. coli; commercial 2K epoxy paint, 0.03 weight % Ag in coating) was “+”, the “E. coli growth on coating” value (E. coli; commercial 2K epoxy paint, 0.06 weight % Ag in coating) was “−” and the “E. coli growth on coating” value (E. coli; commercial 2K epoxy paint, 0.12 weight % Ag in coating) was “−”. The “Silver level giving complete inhibition of growth” value (E. coli; commercial 2K epoxy paint) was 0.06 % w/w, the “E. coli growth on coating” value (E. coli; commercial solvent borne acrylate paint, 0.0012 weight % Ag in coating) was “+” and the “E. coli growth on coating” value (E. coli; commercial solvent borne acrylate paint, 0.003 weight % Ag in coating) was “+”. The “E. coli growth on coating” value (E. coli; commercial solvent borne acrylate paint, 0.006 weight % Ag in coating) was “+”, the “E. coli growth on coating” value (E. coli; commercial solvent borne acrylate paint, 0.012 weight % Ag in coating) was “+” and the “E. coli growth on coating” value (E. coli; commercial solvent borne acrylate paint, 0.06 weight % Ag in coating) was “−”. The “E. coli growth on coating” value (E. coli; commercial solvent borne acrylate paint, 0.12 weight % Ag in coating) was “−”, the “Silver level partially effective” value (E. coli; commercial solvent borne acrylic paint) was 0.03 % Ag w/w and the “E. coli growth on coating” value (E. coli; laboratory solvent borne acrylate paint, 0.0012 weight % Ag in coating) was “+”. For the same compound, the “E. coli growth on coating” value (E. coli; laboratory solvent borne acrylate paint, 0.003 weight % Ag in coating) was “+”, the “E. coli growth on coating” value (E. coli; laboratory solvent borne acrylate paint, 0.006 weight % Ag in coating) was “+” and the “E. coli growth on coating” value (E. coli; laboratory solvent borne acrylate paint, 0.012 weight % Ag in coating) was “+”. For the same compound, the “E. coli growth on coating” value (E. coli; laboratory solvent borne acrylate paint, 0.03 weight % Ag in coating) was “+”, the “E. coli growth on coating” value (E. coli; laboratory solvent borne acrylate paint, 0.06 weight % Ag in coating) was “−” and the “E. coli growth on coating” value (E. coli; laboratory solvent borne acrylate paint, 0.12 weight % Ag in coating) was “−”.
